Columns and labels:
[1] = tested on: CD8+ T cell responses; assay: In vivo immunogenicity assay, longmers and shortmers sequentially (FIG. 3 regimen); design: species or system C57BL/6 mice; details: CD8 T cells induced by Alg8 vaccination
Description: FIG. 3 illustrates exemplary administration regimen for peptides comprising neoepitopes. The top panel depicts administering a prime dose and boost of longmer. The middle panel depicts administering a prime dose and boost of shortmer. The lower panel depicts administering a prime dose of longmer and boost of shortmer. The boost dose is administered on day 7, 14, and day 21 after the prime dose.
Peptide-specific T cells are functionally enumerated using the ELISPOT assay (BD Biosciences), which measures the release of IFNγ from T cells on a single cell basis. Cells incubated with antigen overnight (16-18 hours) at 37° C. The next day, the cell suspension was discarded, and wells were washed once with PBS, and twice with deionized water. […] Substrate (3-amino-9-ethyl-carbazole, 0.1 M Acetate buffer, H2O2) was added to all wells, and spot development monitored (approximately 10 minutes). […] The plates were analyzed on an ELISPOT reader (Cellular Technology Ltd.) with accompanying software. […]
MHC tetramers were purchased or manufactured on-site, and were used to measure peptide-specific T cell expansion in the immunogenicity assays. […] The phenotype of cells was assessed using markers such as CD44, CD62L, KLRG1, CD127, PD-1, LAG-3 and TIM-3. […] Cells were acquired on a FACS Calibur (Becton Dickinson) instrument, and were analyzed by use of Cellquest software (Becton Dickinson). […]

[2] = in humans; cited from earlier work
[3] = in combination with a NYESO-1 peptide vaccine (in addition to Montanide); cited from earlier work

TCR avidity (EC50) [1]	Substance	CD4+ and CD8+ responses [2]	patients showing induction of CD4+ and CD8+ T cell, as well as antibody responses to the peptide [3]
similar	AVGITYTWTRLYASVLTGSLVSKTKK [Alg8, longmer murine neoantigen peptide, H-2Kb, T3 model]	–	–
similar	ITYTWTRL [Alg8-shortmer]	–	–
–	poly-ICLC	durable CD4+ and CD8+ responses	> 90%

From patent US11793867B2, “Neoantigens and uses thereof” (BIONTECH US INC., priority 2017, dated 2023)
